Laboratory results published in patent US10793566B2, “Bruton's tyrosine kinase inhibitors” (Zibo Biopolar Changsheng Pharmaceutical Co. Ltd., priority 2016, dated 2020).

Tests used:
BTK [1] = biological target: T1, BTK (Homo sapiens (Human), UniProt Q06187); assay: Btk occupancy in cellular assays (PCI-33380 labeling); format: cell-based; details: Jeko-1 cells, 1.5 h pre-incubation, PCI-33380 probe
Experimental: Btk Occupancy in Cellular Assays
For PCI-33380 labeling of human B cells, 10^6 Jeko-1 cells were pre-incubated with compound for 1.5 h before labeling. Then cells were treated with PCI-33380 at 5 μM for 1 h. Washed, lysed in Ripa buffer containing sample reducing agent, and analyzed by SDS/PAGE and fluorescent gel scanning using a Typhoon scanner 9500 (GE Healthcare) (Ex, 532 nm; Em, 555 nm). The gel was then blotted and total Btk levels detected by standard Western blot with Btk antibody (CST).
Target sequence in this assay (Q06187 whole entry): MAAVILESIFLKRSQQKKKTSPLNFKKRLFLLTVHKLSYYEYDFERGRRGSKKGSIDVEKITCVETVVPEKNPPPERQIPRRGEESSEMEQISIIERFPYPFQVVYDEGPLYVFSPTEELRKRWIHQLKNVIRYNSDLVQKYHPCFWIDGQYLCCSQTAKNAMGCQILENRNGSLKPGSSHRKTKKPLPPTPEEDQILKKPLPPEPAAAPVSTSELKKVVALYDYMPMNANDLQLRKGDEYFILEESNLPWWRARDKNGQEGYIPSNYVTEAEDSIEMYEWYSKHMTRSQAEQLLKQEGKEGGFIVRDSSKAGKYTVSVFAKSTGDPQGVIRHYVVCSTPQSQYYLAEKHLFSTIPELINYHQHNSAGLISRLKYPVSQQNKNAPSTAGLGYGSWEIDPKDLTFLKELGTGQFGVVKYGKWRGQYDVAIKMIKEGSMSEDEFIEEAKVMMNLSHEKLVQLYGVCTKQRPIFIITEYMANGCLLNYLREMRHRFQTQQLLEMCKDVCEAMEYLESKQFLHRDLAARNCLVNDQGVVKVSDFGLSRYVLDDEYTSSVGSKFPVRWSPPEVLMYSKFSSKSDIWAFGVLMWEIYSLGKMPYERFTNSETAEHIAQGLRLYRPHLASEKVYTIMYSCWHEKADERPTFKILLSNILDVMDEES

BTK [2] = biological target: T1, BTK; assay: Btk kinase assay (HTRF); format: biochemical; details: [ATP]=80 μM, BTK=3.4 nM; read-out: BTK Inhibition
Experimental: Btk Kinase Assay and Other Kinases Assay Btk kinase activity was determined using a homogenous time resolved fluorescence (HTRF) methodology. Measurements were performed in a reaction volume of 15 μL using 384-well assay plates. […] Activity was determined by the ratio of the fluorescence at 665 nm to that at 615 nm. For each compound, enzyme activity as measured at various concentrations of compound, Negative control reactions were performed in the absence of inhibitor in two replicates and eight no enzyme controls were used to determine baseline fluorescence levels.
Target sequence in this assay (Q06187 whole entry, species assumed): as the sequence (Q06187 whole entry) above

Btk [3] = biological target: Btk (Mus musculus (Mouse), UniProt P35991); assay: Btk occupancy in vivo (PBMCs/splenocytes, PCI-33380 labeling); details: Babc/L mice, after 4 hours
Chain of Btk (P35991 whole entry): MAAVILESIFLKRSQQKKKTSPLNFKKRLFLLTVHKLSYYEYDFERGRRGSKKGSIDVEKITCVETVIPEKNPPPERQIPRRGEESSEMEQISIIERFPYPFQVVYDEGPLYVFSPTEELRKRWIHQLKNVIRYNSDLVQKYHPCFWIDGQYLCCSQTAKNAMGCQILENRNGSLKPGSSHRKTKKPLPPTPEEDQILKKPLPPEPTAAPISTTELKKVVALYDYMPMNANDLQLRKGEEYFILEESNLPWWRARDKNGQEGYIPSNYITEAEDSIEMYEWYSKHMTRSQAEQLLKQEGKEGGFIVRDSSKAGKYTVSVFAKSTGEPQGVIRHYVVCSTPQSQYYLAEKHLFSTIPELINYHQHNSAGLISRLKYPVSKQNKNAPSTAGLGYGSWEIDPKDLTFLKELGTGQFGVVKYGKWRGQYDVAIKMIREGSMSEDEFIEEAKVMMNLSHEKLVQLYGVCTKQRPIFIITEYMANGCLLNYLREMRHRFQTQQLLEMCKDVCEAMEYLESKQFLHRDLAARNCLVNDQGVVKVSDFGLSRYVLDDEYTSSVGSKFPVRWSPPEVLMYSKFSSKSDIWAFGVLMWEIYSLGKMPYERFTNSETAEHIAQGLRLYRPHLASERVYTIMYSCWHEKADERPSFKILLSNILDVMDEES
Experimental: For analysis of Btk occupancy in Babc/L mice following oral dosing of compounds after 4 hours. Isolating peripheral blood mononuclear cells (PBMCs) with mouse peripheral blood separation kit (Hao Yang Biological Manufacture CO., LTD, Tianjin) were collected from Babc/L mice (1 ml blood from two mice). Spleens were processed to splenocytes followed by 5 min incubation in red blood cell lysing buffer (from mouse peripheral blood separation kit). PBMCs or splenocytes were then PCI-33380-labeled and lysates analyzed by fluorescent gel scanning as described in cellular assays.

Ramos cells = assay: Calcium flux assay, anti-IgM stimulated Ramos cells; format: cell-based; details: Homo sapiens, IgM-induced calcium influx, read-out: Ramos Ca Flux
Experimental: Calcium flux fluorescence-based assays were performed in aFDSS7000EX (Hamamatsu Photonics) fluorometric imaging plate reader according to manufacturer instructions. Compounds to be assayed were dissolved in DMSO, diluted to appropriate concentrations in Ca^2+ buffer ranging from 0 to 10 μM (at a dilution factor of 0.1), added 5 μl (6 X) to each well (the final DMSO concentration was 0.1% in each well). Then 12.5 μL 2× dye loading solution (Fluo-4 NW Calcium Assay Kits, Invitrogen) was added per well of a 384-well plate. Afterwards, actively growing Ramos cells (ATCC) in RPM1640 medium supplemented with 10% FBS (Invitrogen) were washed and re-plated in assay buffer (from Fluo-4 NW Calcium Assay Kits, Invitrogen) to approximately 6.4×10^6/ml (80000 cells/12.5 μL in 384-well plates). The plates were incubated at 37° C. for 30 minutes, then at room temperature for an additional 30 minutes. The plates were now ready to be used in an experiment. Immediately after the transfer and a 10-s recording of baseline fluorescence, the compound treated cells were stimulated with a goat anti-human IgM antibody ([…]; Jackson Immuno Research) and read in a FDSS for 240 seconds. Difference between the signal and that at baseline, designated adjusted relative fluorescence unit, was calculated by using a custom Excel (Microsoft, Redmond, Wash.) template to determine IgM-induced calcium influx and its inhibition by compounds. The table below show the result.

| Compound | concentration sufficient to fully occupy the active site of Btk (BTK [1]) | other results |
| --- | --- | --- |
| C=CC(=O)N1CC[C@@H](n2nc(-c3ccc(Oc4cccc(OC)c4F)cc3)c3cncc(OC)c32)C1 [Example 79, (R)-1-(3-(3-(4-(2-fluoro-3-methoxyphenoxy)phenyl)-7-methoxy-1H-pyrazolo[4,3-c]pyridin-1-yl)pyrrolidin-1-yl)prop-2-en-1-one] | 50 nM | – |
| COc1cccc(Oc2ccc(-c3nn([C@@H]4CCCN(C(=O)/C(C#N)=C/C(C)(C)C)C4)c4c(OC)cncc34)cc2)c1F [Example 90, (R,E)-2-(3-(3-(4-(2-fluoro-3-methoxyphenoxy)phenyl)-7-methoxy-1H-pyrazolo[4,3-c]pyridin-1-yl)piperidine-1-carbonyl)-4,4-dimethylpent-2-enenitrile] | – | IC50 (BTK [2]): 10 to 100 nM |
| C=CC(=O)N1CCC[C@@H](n2nc(-c3ccc(Oc4cccc(OC)c4F)cc3)c3cncc(OC4CCOC4)c32)C1 (stereo partly drawn) [Example 99, 1-((3R)-3-(3-(4-(2-fluoro-3-methoxyphenoxy)phenyl)-7-((tetrahydrofuran-3-yl)oxy)-1H-pyrazolo[4,3-c]pyridin-1-yl)piperidin-1-yl)prop-2-en-1-one] | 100 nM | – |
| C=CC(=O)N1CCC[C@@H](n2nc(-c3ccc(Oc4cccc(OC)c4F)cc3)c3cncc(OCC)c32)C1 [Example 73, (R)-1-(3-(7-ethoxy-3-(4-(2-fluoro-3-methoxyphenoxy)phenyl)-1H-pyrazolo[4,3-c]pyridin-1-yl)piperidin-1-yl)prop-2-en-1-one] | 100 nM | Btk occupancy in vivo (Btk [3]; 5 mg/kg single oral dose): full occupancy |
| C=CC(=O)N1CCC[C@@H](n2nc(-c3ccc(Oc4cccc(OC)c4Cl)cc3)c3cnccc32)C1 [Example 2, (R)-1-(3-(3-(4-(2-chloro-3-methoxyphenoxy)phenyl)-1H-pyrazolo[4,3-c]pyridin-1-yl)piperidin-1-yl)prop-2-en-1-one] | 100 nM | Btk occupancy in vivo (Btk [3]; 10 mg/kg single oral dose): full occupancy; IC50 (Ramos cells): 10 to 100 nM |
| C=CC(=O)N1CC[C@@H](n2nc(-c3ccc(Oc4cccc(OC)c4F)cc3)c3cnccc32)C1 [Example 3, (R)-1-(3-(3-(4-(2-fluoro-3-methoxyphenoxy)phenyl)-1H-pyrazolo[4,3-c]pyridin-1-yl)pyrrolidin-1-yl)prop-2-en-1-one] | 50 nM | Btk occupancy in vivo (Btk [3]; 10 mg/kg single oral dose): full occupancy; IC50 (Ramos cells): 10 to 100 nM |
| C=CC(=O)N1CCC[C@@H](n2nc(-c3ccc(Oc4cccc(OC)c4F)cc3)c3cnccc32)C1 [Example 71, (R)-1-(3-(3-(4-(2-fluoro-3-methoxyphenoxy)phenyl)-1H-pyrazolo[4,3-c]pyridin-1-yl)piperidin-1-yl)prop-2-en-1-one] | 100 nM | Btk occupancy in vivo (Btk [3]; 10 mg/kg single oral dose): full occupancy |
| C=CC(=O)N1CC[C@@H](n2nc(-c3ccc(Oc4cccc(F)c4Cl)cc3)c3cnccc32)C1 [Example 4, (R)-1-(3-(3-(4-(2-chloro-3-fluorophenoxy)phenyl)-1H-pyrazolo[4,3-c]pyridin-1-yl)pyrrolidin-1-yl)prop-2-en-1-one] | 100 nM | Btk occupancy in vivo (Btk [3]; 10 mg/kg single oral dose): full occupancy; IC50 (Ramos cells): 10 to 100 nM |
| C=CC(=O)N1CCC[C@@H](n2nc(-c3ccc(Oc4cccc(OC)c4F)cc3)c3cncc(OCCC)c32)C1 [Example 77, (R)-1-(3-(3-(4-(2-fluoro-3-methoxyphenoxy)phenyl)-7-propoxy-1H-pyrazolo[4,3-c]pyridin-1-yl)piperidin-1-yl)prop-2-en-1-one] | 25 nM | – |
| C=CC(=O)N1CCCC1Cn1nc(-c2ccc(Oc3cccc(OC)c3F)cc2)c2cncc(OC)c21 (centres unmarked) [Example 91, 1-(2-((3-(4-(2-fluoro-3-methoxyphenoxy)phenyl)-7-methoxy-1H-pyrazolo[4,3-c]pyridin-1-yl)methyl)pyrrolidin-1-yl)prop-2-en-1-one] | – | Btk occupancy in vivo (Btk [3]; 5 mg/kg single oral dose): full occupancy |
| C=CC(=O)N1CCC[C@@H](n2nc(-c3ccc(Oc4cccc(OC)c4F)cc3)c3c(C)nccc32)C1 [Example 78, (R)-1-(3-(3-(4-(2-fluoro-3-methoxyphenoxy)phenyl)-4-methyl-1H-pyrazolo[4,3-c]pyridin-1-yl)piperidin-1-yl)prop-2-en-1-one] | 50 nM | – |
| C=CC(=O)N1CC[C@@H](n2nc3ccncc3c2-c2ccc(Oc3cccc(Cl)c3Cl)cc2)C1 [Example 41, (R)-1-(3-(3-(4-(2,3-dichlorophenoxy)phenyl)-2H-pyrazolo[4,3-c]pyridin-2-yl)pyrrolidin-1-yl)prop-2-en-1-one] | 100 nM | – |
| C=CC(=O)N1CC[C@@H](n2nc(-c3ccc(Oc4cccc(OC)c4Cl)cc3)c3cncc(OC)c32)C1 [Example 69, (R)-1-(3-(3-(4-(2-chloro-3-methoxyphenoxy)phenyl)-7-methoxy-1H-pyrazolo[4,3-c]pyridin-1-yl)pyrrolidin-1-yl)prop-2-en-1-one] | 100 nM | – |
| C=CC(=O)N1CCC[C@@H](n2nc(-c3ccc(Oc4cccc(F)c4F)cc3)c3cnccc32)C1 [Example 17, (R)-1-(3-(3-(4-(2,3-difluorophenoxy)phenyl)-1H-pyrazolo[4,3-c]pyridin-1-yl)piperidin-1-yl)prop-2-en-1-one] | 100 nM | – |
| C=CC(=O)N1CCC[C@@H](n2nc3ccncc3c2-c2ccc(Oc3cccc(Cl)c3Cl)cc2)C1 [Example 43, (R)-1-(3-(3-(4-(2,3-dichlorophenoxy)phenyl)-2H-pyrazolo[4,3-c]pyridin-2-yl)piperidin-1-yl)prop-2-en-1-one] | 100 nM | – |
| C=CC(=O)N1CCC[C@@H](n2nc(-c3ccc(Oc4cccc(OC)c4F)cc3)c3cncc(OCCO)c32)C1 [Example 98, (R)-1-(3-(3-(4-(2-fluoro-3-methoxyphenoxy)phenyl)-7-(2-hydroxyethoxy)-1H-pyrazolo[4,3-c]pyridin-1-yl)piperidin-1-yl)prop-2-en-1-one] | 100 nM | – |
| C=CC(=O)N1CCC[C@@H](n2nc(-c3ccc(Oc4cccc(OC)c4F)cc3)c3cncc(OC)c32)C1 [Example 6, (R)-1-(3-(3-(4-(2-fluoro-3-methoxyphenoxy)phenyl)-7-methoxy-1H-pyrazolo[4,3-c]pyridin-1-yl)piperidin-1-yl)prop-2-en-1-one] | – | IC50 (Ramos cells): 10 to 100 nM |
| C=CC(=O)N1CC[C@@H](n2nc(-c3ccc(Oc4cccc(OC)c4F)cc3)c3cncc(OCC)c32)C1 [Example 80, (R)-1-(3-(7-ethoxy-3-(4-(2-fluoro-3-methoxyphenoxy)phenyl)-1H-pyrazolo[4,3-c]pyridin-1-yl)pyrrolidin-1-yl)prop-2-en-1-one] | 50 nM | – |
